Reference: US20250268821A1 (AVALYN PHARMA INC., priority 2022, published 2025)
Read-outs that look alike come from different tables or passages of the source.

What was measured:
Lyn = Lyn (Homo sapiens, UniProt P07948); conditions: cited from earlier work
[1] = in vivo; cited from earlier work
[2] = Clinical study in healthy volunteers: inhaled nebulized vs oral nintedanib (ELF and plasma pharmacokinetics, safety); format: in vivo; conditions: human
Source text: To characterize how dry powder nintedanib may perform in humans, a clinical study was first conducted comparing inhaled nebulized and oral nintedanib in healthy volunteers.

[3] = Sheep pharmacokinetics (ELF and plasma): nebulized inhaled nintedanib, fixed combination with pirfenidone, oral nintedanib; format: in vivo; conditions: for Cmax / AUC / half-life / Tmax: female, Merino cross-bred, sheep
Protocol: All animals had received standard vaccinations and were treated orally with anthelminthic (in line with standard management practices) prior to arrival at the animal facility to eliminate any worm parasites before experimentation. Experimental animals were rotated between indoor small group pen housing and metabolism cages under controlled ambient conditions (20-22° C.) and maintained on a 12 h light/dark throughout the experimental period. […] All formulations used in this study were stored at room temperature (RT) and protected from light prior to use; drugs were prepared on day of use. Sheep arrived into the facility as one group and were acclimatized over 2-3 weeks (group housing to indoor cage/pens) prior to experimentation. […] Group 1 sheep also received Treatment 1b, an addition/modification to the original study protocol. Treatments were administered over Weeks 3-9 of the study; each experimental Treatment was performed over a one week period in either Group 1 or Group 2 sheep (e.g., one group received Treatment while the other group was rested). Group 1 and Group 2 sheep were allocated separate sampling schedules for peripheral blood and bronchoalveolar lavage fluid (BALF) collections (Table 16). For nebulized aerosol drug administration to the lungs (inhalation dosing), a lubricated cuffed endotracheal (ET) tube (Portex, 7.0-8.0 mm internal diameter) was inserted via the nasal passage (guided by a fibre-optic endoscope) into the trachea. […] Respiration was set to 20 breaths/min, 50% inspiration and a tidal volume of 350 mL. Filters (Hudson RCl, NC, USA) were placed in the expiratory line to collect any expired drug dose. Following drug administration all lines, filters and nebulizer components were rinsed with 50 mL sterile saline to collect any remaining or expired dose. Washout sample aliquots (500 μl) were frozen on dry ice in 1.5 mL Eppendorf tubes, then stored at −80° C. prior to shipment for drug content analyses. Oral drug administration (Treatment 3) followed the procedure as detailed below (oral dosing optimization). A feeding tube (7 mm internal diameter) was inserted via the nasal passage (guided by a fibre-optic endoscope) into the upper region of the esophagus. […] Blood samples collected prior to and following drug administration (Table 16) were placed into K3EDTA-coated tubes. […] BALF samples were collected prior to and following drug administration ([…]). Sampling was carried out by intra-lung infusion of 25 ml of sterile saline via a catheter through the biopsy port of the bronchoscope, followed by immediate retrieval of the BALF sample into the collection syringe. BALF was collected from separate lung segments/lobes to avoid contamination between sampling time-points: the right apical lobe (RA) was used for all pre-dose sampling and post-dose samples were collected from right middle (RM); right caudal (RC); left caudal (LC); left middle (LM); and left apical (LA) lung lobes. BALF sampling details (volumes, exact time of collection) were recorded and samples immediately frozen on dry ice, then stored at −80° C. prior to shipment for drug content analyses.

[4] = previously known; various salt forms; cited from earlier work
Src = Src (Homo sapiens, UniProt P12931); conditions: cited from earlier work
Flt-3 = biological target: T1, Flt-3 (Homo sapiens, UniProt P36888); conditions: cited from earlier work
T1 sequence (P36888 27-993): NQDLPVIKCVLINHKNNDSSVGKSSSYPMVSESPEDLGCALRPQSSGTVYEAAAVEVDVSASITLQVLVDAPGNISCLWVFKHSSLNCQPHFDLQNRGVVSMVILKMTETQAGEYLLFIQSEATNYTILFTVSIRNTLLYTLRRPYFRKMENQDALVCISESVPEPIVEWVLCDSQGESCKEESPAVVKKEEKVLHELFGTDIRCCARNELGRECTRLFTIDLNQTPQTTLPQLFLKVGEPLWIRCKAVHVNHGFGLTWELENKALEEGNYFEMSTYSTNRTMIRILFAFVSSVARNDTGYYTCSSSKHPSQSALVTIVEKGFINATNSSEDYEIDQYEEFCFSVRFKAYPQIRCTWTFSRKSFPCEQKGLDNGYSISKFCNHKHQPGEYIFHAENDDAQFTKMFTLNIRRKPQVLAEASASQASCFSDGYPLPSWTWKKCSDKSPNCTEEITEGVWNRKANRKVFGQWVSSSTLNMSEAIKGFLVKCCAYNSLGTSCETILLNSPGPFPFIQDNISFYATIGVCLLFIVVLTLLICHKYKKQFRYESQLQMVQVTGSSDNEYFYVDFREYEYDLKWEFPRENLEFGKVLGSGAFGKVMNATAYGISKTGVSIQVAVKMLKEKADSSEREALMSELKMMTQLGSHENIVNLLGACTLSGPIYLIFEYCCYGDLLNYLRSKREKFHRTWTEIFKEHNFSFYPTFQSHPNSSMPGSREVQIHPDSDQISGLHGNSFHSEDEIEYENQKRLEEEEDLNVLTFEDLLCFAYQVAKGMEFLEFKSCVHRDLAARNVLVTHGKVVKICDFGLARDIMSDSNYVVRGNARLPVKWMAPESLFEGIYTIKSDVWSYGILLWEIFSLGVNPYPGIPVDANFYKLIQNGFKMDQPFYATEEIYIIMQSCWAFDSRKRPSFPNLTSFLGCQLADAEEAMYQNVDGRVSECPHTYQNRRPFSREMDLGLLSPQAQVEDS

[5] = Pirfenidone-nintedanib interaction: physical stability of nintedanib solution in 67 mM sodium chloride; format: physicochemical; conditions: 0.25 mg/mL nintedanib, about 67 mM sodium chloride
[6] = inhaled nebulized, 2 mg, IPD = immediate post dose

Chain of Src (P12931 whole entry, species assumed): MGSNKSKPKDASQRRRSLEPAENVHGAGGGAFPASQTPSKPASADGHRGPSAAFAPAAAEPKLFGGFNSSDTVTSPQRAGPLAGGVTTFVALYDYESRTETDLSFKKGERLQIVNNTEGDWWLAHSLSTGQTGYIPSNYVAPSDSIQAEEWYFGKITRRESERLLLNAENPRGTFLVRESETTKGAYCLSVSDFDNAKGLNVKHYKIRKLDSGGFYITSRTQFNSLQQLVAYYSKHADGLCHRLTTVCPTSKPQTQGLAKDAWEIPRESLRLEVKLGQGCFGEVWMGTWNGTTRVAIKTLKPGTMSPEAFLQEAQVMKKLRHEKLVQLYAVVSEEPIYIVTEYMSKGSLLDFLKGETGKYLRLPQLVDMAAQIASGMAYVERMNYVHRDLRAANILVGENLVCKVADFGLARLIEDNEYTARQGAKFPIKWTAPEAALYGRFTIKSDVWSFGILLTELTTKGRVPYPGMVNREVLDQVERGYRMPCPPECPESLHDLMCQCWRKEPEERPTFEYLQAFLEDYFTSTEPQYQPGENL
Chain of Lyn (P07948 whole entry, species assumed): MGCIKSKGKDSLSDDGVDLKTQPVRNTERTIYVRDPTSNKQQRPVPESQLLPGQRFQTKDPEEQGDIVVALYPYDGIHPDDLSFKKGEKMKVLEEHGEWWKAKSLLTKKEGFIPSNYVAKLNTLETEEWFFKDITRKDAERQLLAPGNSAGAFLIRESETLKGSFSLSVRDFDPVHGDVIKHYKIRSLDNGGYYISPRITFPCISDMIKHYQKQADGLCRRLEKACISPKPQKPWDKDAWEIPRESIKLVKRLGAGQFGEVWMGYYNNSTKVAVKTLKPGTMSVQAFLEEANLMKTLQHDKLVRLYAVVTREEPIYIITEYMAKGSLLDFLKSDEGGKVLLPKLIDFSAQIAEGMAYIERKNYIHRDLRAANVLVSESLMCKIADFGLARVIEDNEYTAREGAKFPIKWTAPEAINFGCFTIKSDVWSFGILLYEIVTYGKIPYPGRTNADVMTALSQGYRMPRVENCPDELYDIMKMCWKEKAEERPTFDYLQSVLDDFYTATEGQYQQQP

COC(=O)c1ccc2c(c1)NC(=O)/C2=C(\Nc1ccc(N(C)C(=O)CN2CCN(C)CC2)cc1)c1ccccc1 [Nintedanib, methyl (3Z)-3-[[4-[methyl-[2-(4-methylpiperazin-1-yl)acetyl]amino]anilino]-phenylmethylidene]-2-oxo-1H-indole-6-carboxylate]
inhibition (Lyn): inhibited
fraction of administered nintedanib excreted in the urine [1]: About 80%
AUC ([2]; epithelial lining fluid (ELF), inhaled or intranasal, inhaled nebulized liquid 2 mg, read-out: ELF AUC): 3.4 µg·h/mL
Cmax ([2]; epithelial lining fluid (ELF), inhaled or intranasal, inhaled nebulized liquid 2 mg, read-out: ELF Cmax): 4.66 µg/mL
AUC ([2]; epithelial lining fluid (ELF), oral tablet 150 mg, read-out: ELF AUC): 1.2 µg·h/mL
Cmax ([2]; epithelial lining fluid (ELF), oral tablet 150 mg, read-out: ELF Cmax): 0.0727 µg/mL
Tmax ([2]; plasma, inhaled or intranasal, inhaled nebulized liquid 2 mg): 0.2 h
AUC ([2]; plasma, inhaled or intranasal, inhaled nebulized liquid 2 mg, read-out: Plasma AUC): 0.004 µg·h/mL
Cmax ([2]; plasma, inhaled or intranasal, inhaled nebulized liquid 2 mg, read-out: Plasma Cmax): 0.0028 µg/mL
Tmax ([2]; plasma, oral tablet 150 mg): 7.8 h
AUC ([2]; plasma, oral tablet 150 mg, read-out: Plasma AUC): 0.163 µg·h/mL
Cmax ([2]; plasma, oral tablet 150 mg, read-out: Plasma Cmax): 0.0135 µg/mL
adverse responses to oral dosing ([3]; 75 mg oral with glucose chaser): without any adverse responses observed
Cmax ([3]; epithelial lining fluid (ELF), inhaled or intranasal, 0.06 mg/kg, inhaled nebulized liquid, 2 mg (0.06 mg/kg), read-out: ELF Cmax): 7.38 µg/mL
Cmax ([3]; epithelial lining fluid (ELF), inhaled or intranasal, 0.06 mg/kg, inhaled nebulized monotherapy, 2 mg (0.06 mg/kg), Table 19, read-out: ELF Cmax): 7.88 µg/mL
AUC ([3]; epithelial lining fluid (ELF), inhaled or intranasal, 2 mg, inhaled nebulized monotherapy, 2 mg, Table 19, read-out: ELF AUC): 7.3 µg·h/mL
AUC ([3]; epithelial lining fluid (ELF), inhaled or intranasal, 2 mg, inhaled nebulized, 2 mg, read-out: ELF AUC): 5.4 µg·h/mL
half-life ([3]; epithelial lining fluid (ELF), inhaled or intranasal, inhaled nebulized, 2 mg, read-out: ELF T1/2 (α) (converted)): 0.25 h
Cmax ([3]; epithelial lining fluid (ELF), po, 2.14 mg/kg, oral, 75 mg (2.14 mg/kg), 3 mg/mL in water, read-out: ELF Cmax): 0.074 µg/mL
AUC ([3]; epithelial lining fluid (ELF), po, 75 mg, oral, 75 mg, read-out: ELF AUC): 1.2 µg·h/mL
half-life ([3]; epithelial lining fluid (ELF), oral, 75 mg, read-out: ELF T1/2 (converted)): 10 h
Tmax ([3]; epithelial lining fluid (ELF), oral, 75 mg, read-out: ELF Tmax): 10 h
AUC ([3]; plasma, inhaled or intranasal, 2 mg, inhaled nebulized monotherapy, 2 mg, Table 19, read-out: Plasma AUC): 0.004 µg·h/mL
Cmax ([3]; plasma, inhaled or intranasal, 2 mg, inhaled nebulized monotherapy, 2 mg, Table 19, read-out: Plasma Cmax): 0.0039 µg/mL
AUC ([3]; plasma, inhaled or intranasal, 2 mg, inhaled nebulized, 2 mg, read-out: Plasma AUC): 0.007 µg·h/mL
Cmax ([3]; plasma, inhaled or intranasal, 2 mg, inhaled nebulized, 2 mg, read-out: Plasma Cmax): 0.0059 µg/mL
half-life ([3]; plasma, inhaled or intranasal, inhaled nebulized, 2 mg, read-out: Plasma T1/2 (α) (converted)): 0.25 h
AUC ([3]; plasma, po, 75 mg, oral, 75 mg, read-out: Plasma AUC): 0.058 µg·h/mL
Cmax ([3]; plasma, po, 75 mg, oral, 75 mg, read-out: Plasma Cmax): 0.0036 µg/mL
half-life ([3]; plasma, oral, 75 mg, read-out: Plasma T1/2 (converted)): 10 h
Tmax ([3]; plasma, oral, 75 mg, read-out: Plasma Tmax): 9 h
ELF Tmax [3, 6]: IPD^b
Plasma Tmax [3, 6]: IPD^b
sodium chloride concentration at which nintedanib is physically unstable in solution [4]: ≥ 30 mM
inhibition (Src): inhibited
inhibition (Flt-3): inhibited
pirfenidone parts per 1 part nintedanib (weight by weight) that stabilizes nintedanib in solution [5]: greater than 30 parts
